Among the data in US12377106B2, “Piperidinylpyrazine-carboxamide compounds for treating and preventing cancer and for degrading BTK” (NURIX THERAPEUTICS, INC., priority 2021, dated 2025) are Ikaros degradation values, retold here.

The assay concerns the target T1, Ikaros (Homo sapiens, UniProt Q13422+Q96SW2).
T1 construct: peripheral blood was obtained from all patients for baseline and post Compound 149 therapy assessment of BTK and Ikaros degradation; endogenous in cells; host or cells: peripheral blood cells of a DLBCL patient
In words: Ikaros degradation in the patient. The format is in vivo. To be noted: DLBCL patient, 300 mg. The method, then: Following informed consent, peripheral blood was obtained from all patients for baseline and post Compound 149 therapy assessment of BTK and Ikaros degradation. Patient blood (5 mL) was drawn and immediately fixed in a 5 mL CytoChex™ BCT tube and stored at ambient temperature until assessment via flow cytometry. Blood samples were analyzed within 3 days post sample collection at Precision for Medicine. Additional blood was also drawn into 8 mL BD Vacutainer® CPT™ Cell Preparation Tube with Sodium Citrate. Peripheral blood mononuclear cells (PBMCs) were processed, and viability frozen according to manufacturer's protocol. The patient's response was checked at 8 weeks and 16 weeks. […] Gradual BTK degradation was observed until day 8 day of receiving the 300 mg dose of Compound 149, wherein the maximum BTK degradation was achieved on the 8th day. Consistent with its design, Compound 149 also degraded Ikaros and Aiolos which is responsible for the compound's immunomodulatory activity. […] In the 16-week assessment image, maximum standard uptake value (Max SUV) reduced from 17.6 at screening to 2.5 at the 16-week assessment time with the Deauville five-point scale (5PS; Barrington et al., 2010, Eur J Nucl Med Mol Imaging 37 (10): 1824-33) reducing from 5 to 2.

T1 sequence (Q13422 whole entry): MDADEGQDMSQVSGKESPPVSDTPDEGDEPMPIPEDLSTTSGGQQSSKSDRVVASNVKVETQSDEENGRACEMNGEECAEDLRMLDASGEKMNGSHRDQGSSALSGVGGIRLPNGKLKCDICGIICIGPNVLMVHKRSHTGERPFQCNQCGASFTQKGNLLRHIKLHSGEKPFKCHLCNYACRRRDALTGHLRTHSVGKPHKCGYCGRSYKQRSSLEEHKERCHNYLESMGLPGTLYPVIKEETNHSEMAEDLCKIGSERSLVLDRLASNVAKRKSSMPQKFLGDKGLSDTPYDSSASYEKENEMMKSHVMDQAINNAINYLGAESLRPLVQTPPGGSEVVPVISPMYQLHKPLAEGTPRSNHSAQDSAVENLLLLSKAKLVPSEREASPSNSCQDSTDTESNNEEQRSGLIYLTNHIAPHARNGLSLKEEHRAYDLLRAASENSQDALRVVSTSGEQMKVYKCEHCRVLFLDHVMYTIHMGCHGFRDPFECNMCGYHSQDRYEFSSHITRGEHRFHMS
T1 sequence (Q96SW2 whole entry): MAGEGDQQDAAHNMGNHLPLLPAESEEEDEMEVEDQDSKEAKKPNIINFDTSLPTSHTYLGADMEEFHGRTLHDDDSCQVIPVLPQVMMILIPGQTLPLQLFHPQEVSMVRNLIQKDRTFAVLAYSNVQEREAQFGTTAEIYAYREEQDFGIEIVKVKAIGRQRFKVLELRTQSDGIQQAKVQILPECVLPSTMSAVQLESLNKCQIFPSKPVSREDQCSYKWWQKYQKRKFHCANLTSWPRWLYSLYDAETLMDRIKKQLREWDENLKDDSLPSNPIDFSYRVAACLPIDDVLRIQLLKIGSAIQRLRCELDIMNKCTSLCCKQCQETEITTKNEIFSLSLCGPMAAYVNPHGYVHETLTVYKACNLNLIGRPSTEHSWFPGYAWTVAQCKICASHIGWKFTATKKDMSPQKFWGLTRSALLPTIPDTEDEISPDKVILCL
T1 sequence (Q16531 whole entry partner): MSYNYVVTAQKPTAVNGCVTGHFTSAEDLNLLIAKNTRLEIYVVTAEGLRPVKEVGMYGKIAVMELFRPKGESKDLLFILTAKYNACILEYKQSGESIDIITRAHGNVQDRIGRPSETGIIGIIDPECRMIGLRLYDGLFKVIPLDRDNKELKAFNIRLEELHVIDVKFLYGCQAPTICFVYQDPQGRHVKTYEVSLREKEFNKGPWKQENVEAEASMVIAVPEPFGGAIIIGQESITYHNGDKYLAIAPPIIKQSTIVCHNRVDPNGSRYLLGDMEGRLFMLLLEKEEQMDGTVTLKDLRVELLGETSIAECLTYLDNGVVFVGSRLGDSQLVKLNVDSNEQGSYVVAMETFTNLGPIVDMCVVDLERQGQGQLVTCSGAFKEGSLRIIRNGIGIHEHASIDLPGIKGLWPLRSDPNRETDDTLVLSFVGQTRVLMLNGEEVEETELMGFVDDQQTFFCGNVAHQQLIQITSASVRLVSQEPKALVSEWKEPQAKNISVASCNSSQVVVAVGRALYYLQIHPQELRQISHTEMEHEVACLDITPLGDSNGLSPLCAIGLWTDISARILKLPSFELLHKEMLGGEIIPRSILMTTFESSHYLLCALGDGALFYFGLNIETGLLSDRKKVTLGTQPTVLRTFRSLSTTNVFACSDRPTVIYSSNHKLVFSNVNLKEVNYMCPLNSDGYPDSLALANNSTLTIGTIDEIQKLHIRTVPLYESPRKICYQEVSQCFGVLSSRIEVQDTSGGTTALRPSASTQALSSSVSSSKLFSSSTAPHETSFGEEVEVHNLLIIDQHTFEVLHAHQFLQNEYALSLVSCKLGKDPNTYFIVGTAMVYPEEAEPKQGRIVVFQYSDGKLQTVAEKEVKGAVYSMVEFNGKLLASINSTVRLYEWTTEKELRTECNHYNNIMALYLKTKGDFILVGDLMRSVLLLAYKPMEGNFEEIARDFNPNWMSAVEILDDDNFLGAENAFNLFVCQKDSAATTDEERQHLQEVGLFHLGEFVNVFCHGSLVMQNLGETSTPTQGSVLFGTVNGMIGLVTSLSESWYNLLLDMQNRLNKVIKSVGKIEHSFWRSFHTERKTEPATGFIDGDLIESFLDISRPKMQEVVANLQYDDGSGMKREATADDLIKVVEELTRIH

For the molecule `NC(=O)c1ncc(N2CCCCC2)nc1Nc1ccc(C2CCN(C[C@@H]3CCN(c4ccc5c(c4)C(=O)N(C4CCC(=O)NC4=O)C5=O)C3)CC2)cc1` (stereo partly shown) [Compound 149], the Ikaros degradation result is “degraded”.
